In patent EP1377579B1 (Aventis Pharmaceuticals Inc., priority 2000, dated 2002):
pIC50: −log10 of the molar value. Structures can show the parent of a compound that is named as a salt.

How the values were obtained:
cdk1/cyclin B = cdk1/cyclin B (Homo sapiens, UniProt P06493); test: Cyclin-dependent kinase assay, cdk1/cyclin B; settings: CDK1 IC50, nM, Histone H1, 10 µM ATP
MDA-MB-435 = test: In vitro proliferation assay (MTT), MDA-MB-435; type: cell-based, human; settings: Homo sapiens, MDA-MB-435, MTT assay; value (SD, n) where given; read-out: MB-435 Breast (IC50 µM)
Procedure: (§1) The proliferation of tumor cells can be measured using a tetrazolium salt-based assay known as the MTT (3-[4,5-Dimethylthiazol-2-yl]-2,5-diphenyltetrazolium bromide) assay. […] For the assay, the cell lines are plated onto 96 well plates at 1000 to 2500 cells/well (depending on the properties of the individual cell lines), left to attach and recover overnight. […] After 3 days, the cells are incubated with MTT dye (3-[4,5-Dimethylthiazol-2-yl]-2,5-diphenyltetrazolium bromide, Sigma # M5655, 10 mg/ml in Hank's Buffered Saline) to estimate the amount of live cells remaining vs. concentration for the test compounds. […] The MTT and culture medium is then removed from the cultures and 200 µl of DMSO is added to solubilize the dye from the cell layer. The absorbance at 570 nm is determined for each culture using a Spectramax plate reader (Molecular Devices).
(§2) IC50s were determined from the raw data from either the MTT or SRB assays.
(§3) All of the cell lines were obtained from American Type Tissue Collection, with the ATCC accession number in parentheticals. MCF-7 and MDA-MB-231 cells were grown in improved minimum essential medium (Biofluids) without phenol red, supplemented with 5 % fetal bovine serum, 0.01 mg/ml gentamicin and 3 mM L-glutamine.

cdk4/cyclin D1 = cdk4/cyclin D1 (Homo sapiens, UniProt P11802); test: Cyclin-dependent kinase assay, cdk4/cyclin D1; type: biochemical; settings: cyclin D1/cdk4; GST-pRb substrate, 10 µM ATP
Sequence of cdk4/cyclin D1 (P11802 whole entry): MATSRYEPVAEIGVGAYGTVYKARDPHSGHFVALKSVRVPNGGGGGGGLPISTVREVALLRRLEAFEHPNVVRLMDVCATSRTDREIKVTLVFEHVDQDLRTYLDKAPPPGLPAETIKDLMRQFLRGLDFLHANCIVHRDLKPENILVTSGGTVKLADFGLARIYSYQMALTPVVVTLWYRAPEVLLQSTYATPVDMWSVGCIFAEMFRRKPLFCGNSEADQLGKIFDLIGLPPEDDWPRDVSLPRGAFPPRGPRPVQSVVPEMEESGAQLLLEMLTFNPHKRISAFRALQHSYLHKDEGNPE
Sequence of cdk4/cyclin D1 (P24385 whole entry partner): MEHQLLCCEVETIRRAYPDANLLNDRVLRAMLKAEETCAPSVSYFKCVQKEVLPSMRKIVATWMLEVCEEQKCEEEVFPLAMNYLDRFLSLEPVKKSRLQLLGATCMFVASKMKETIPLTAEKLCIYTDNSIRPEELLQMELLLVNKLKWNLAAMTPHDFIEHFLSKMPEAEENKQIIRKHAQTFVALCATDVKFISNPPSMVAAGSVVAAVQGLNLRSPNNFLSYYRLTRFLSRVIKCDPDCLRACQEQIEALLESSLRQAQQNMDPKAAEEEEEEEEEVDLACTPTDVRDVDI

cdk2/cyclin E = cdk2/cyclin E (Homo sapiens, UniProt P24941); test: Cyclin-dependent kinase assay, cdk2/cyclin E; settings: CDK2 IC50, nM, GST-pRb substrate, 10 µM ATP
PC-3 = test: In vitro proliferation assay (MTT), PC-3; type: cell-based, human; settings: Homo sapiens, PC-3, MTT assay; value (SD, n) where given; read-out: PC-3 Prostate (IC50 µM)
Procedure: as §1, §2, §3

Sequence of cdk1/cyclin B (P06493 whole entry): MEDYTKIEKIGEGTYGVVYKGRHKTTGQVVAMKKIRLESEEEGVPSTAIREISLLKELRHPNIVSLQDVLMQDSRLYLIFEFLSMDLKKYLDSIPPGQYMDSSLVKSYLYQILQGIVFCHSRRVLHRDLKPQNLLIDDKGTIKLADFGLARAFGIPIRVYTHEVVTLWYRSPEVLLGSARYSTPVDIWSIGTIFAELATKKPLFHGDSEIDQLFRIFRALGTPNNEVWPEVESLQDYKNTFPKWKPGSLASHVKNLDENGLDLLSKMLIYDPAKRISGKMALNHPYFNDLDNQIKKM
Sequence of cdk1/cyclin B (P14635 whole entry partner): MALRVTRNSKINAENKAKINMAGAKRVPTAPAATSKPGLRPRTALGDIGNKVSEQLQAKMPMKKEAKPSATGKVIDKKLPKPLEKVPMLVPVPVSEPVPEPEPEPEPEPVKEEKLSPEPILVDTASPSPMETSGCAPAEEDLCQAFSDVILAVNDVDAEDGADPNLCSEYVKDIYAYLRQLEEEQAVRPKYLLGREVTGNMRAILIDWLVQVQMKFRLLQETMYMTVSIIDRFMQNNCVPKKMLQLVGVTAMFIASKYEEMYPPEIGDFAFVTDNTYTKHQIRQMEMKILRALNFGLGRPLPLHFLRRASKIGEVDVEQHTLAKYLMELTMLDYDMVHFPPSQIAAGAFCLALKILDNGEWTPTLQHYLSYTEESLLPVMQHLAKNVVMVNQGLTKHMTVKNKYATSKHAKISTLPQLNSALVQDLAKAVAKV

Row | Structure (SMILES) | IC50 (cdk1/cyclin B) | IC50 (MDA-MB-435) | pIC50 (cdk4/cyclin D1) | IC50 (cdk2/cyclin E) | IC50 (PC-3)
1 | COc1ccc(CC(=O)N2CCC(Nc3nc(N[C@H]4CC[C@H](N)CC4)nc4c3ncn4C3CCCC3)CC2)cc1 [compound 42, trans-1-{4-[2-(4-Amino-cyclohexylamino)-9-cyclopentyl-9H-purin-6-ylamino]-piperidin-1-yl}-2-(4-methoxy-phenyl)-ethanone dihydrochloride] | 21 nM | 1.1 µM | 6.99 | 51 nM | 1.06 µM
2 | N[C@H]1CC[C@H](Nc2nc(NC3CCN(C(=O)Cc4ccc(F)cc4)CC3)c3ncn(C4CCCC4)c3n2)CC1 [compound 48, trans-1-{4-[2-(4-Amino-cyclohexylamino)-9-cyclopentyl-9H-purin-6-ylamino]-piperidin-1-yl}-2-(4-fluoro-phenyl)-ethanone dihydrochloride] | 48 nM | 0.75 µM | 6.30 | 61 nM | 0.84 µM
3 | C=CCCC(=O)N1CCC(Nc2nc(N[C@H]3CC[C@H](N)CC3)nc3c2ncn3C2CCCC2)CC1 [compound 49, trans-1-{4-[2-(4-Amino-cyclohexylamino)-9-cyclopentyl-9H-purin-6-ylamino]-piperidin-1-yl}-pent-4-en-1-one dihydrochloride] | 121 nM | 1.23 µM | 7.06 | 49 nM | 0.92 µM
4 | CC(C)(C)CC(=O)N1CCC(Nc2nc(N[C@H]3CC[C@H](N)CC3)nc3c2ncn3C2CCCC2)CC1 [compound 51, trans-1-{4-[2-(4-Amino-cyclohexylamino)-9-cyclopentyl-9H-purin-6-ylamino]-piperidin-1-yl}-3,3-dimethyl-butan-1-one dihydrochloride] | 109 nM | 0.42 µM | 7.00 | 65 nM | 0.5 µM
5 | N[C@H]1CC[C@H](Nc2nc(NC3CCN(C(=O)Cc4ccccc4)CC3)c3ncn(C4CCCC4)c3n2)CC1 [compound 52, trans-1-{4-[2-(4-Amino-cyclohexylamino)-9-cyclopentyl-9H-purin-6-ylamino]-piperidin-1-yl}-2-phenyl-ethanone dihydrochloride] | 40 nM | 0.87 µM | 6.46 | 59 nM | 0.69 µM
6 | CCCCCC(=O)N1CCC(Nc2nc(N[C@H]3CC[C@H](N)CC3)nc3c2ncn3C2CCCC2)CC1 [compound 54, trans-1-{4-[2-(4-Amino-cyclohexylamino)-9-cyclopentyl-9H-purin-6-ylamino]-piperidin-1-yl}-hexan-1-one dihydrochloride] | 45 nM | 0.6 µM | 6.50 | 49 nM | 0.59 µM
7 | N[C@H]1CC[C@H](Nc2nc(NC3CCN(C(=O)C4CCCCC4)CC3)c3ncn(C4CCCC4)c3n2)CC1 [compound 55, trans-1-{4-[2-(4-Amino-cyclohexylamino)-9-cyclopentyl-9H-purin-6-ylamino]-piperidin-1-yl}-1-cyclohexyl-methanone dihydrochloride] | 99 nM | 0.41 µM | 6.21 | 56 nM | 0.57 µM
8 | CCCCC(=O)N1CCC(Nc2nc(N[C@H]3CC[C@H](N)CC3)nc3c2ncn3C2CCCC2)CC1 [compound 56, trans-1-{4-[2-(4-Amino-cyclohexylamino)-9-cyclopentyl-9H-purin-6-ylamino]-piperidin-1-yl}-pentan-1-one dihydrochloride] | 43 nM | 0.61 µM | 6.04 | 53 nM | 0.69 µM
9 | CCCC(=O)N1CCC(Nc2nc(N[C@H]3CC[C@H](N)CC3)nc3c2ncn3C2CCCC2)CC1 [compound 58, trans-1-{4-[2-(4-Amino-cyclohexylamino)-9-cyclopentyl-9H-purin-6-ylamino]-piperidin-1-yl}-butan-1-one dihydrochloride] | 52 nM | 1.01 µM | 6.45 | 68 nM | 0.94 µM
10 | N[C@H]1CC[C@H](Nc2nc(NC3CCN(C(=O)Cc4cccs4)CC3)c3ncn(C4CCCC4)c3n2)CC1 [compound 61, trans-1-{4-[2-(4-Amino-cyclohexylamino)-9-cyclopentyl-9H-purin-6-ylamino]-piperidin-1-yl}-2-thiophen-2-yl-ethanone dihydrochloride] | 40 nM | 0.61 µM | 6.12 | 38 nM | 0.58 µM
11 | N[C@H]1CC[C@H](Nc2nc(NC3CCN(C(=O)C4CC4)CC3)c3ncn(C4CCCC4)c3n2)CC1 [compound 64, trans-1-{4-[2-(4-Amino-cyclohexylamino)-9-cyclopentyl-9H-purin-6-ylamino]-piperidin-1-yl}-1-cyclopropyl-methanone dihydrochloride] | 65 nM | 1.13 µM | 6.23 | 62 nM | 1.03 µM
12 | N[C@H]1CC[C@H](Nc2nc(NC3CCN(C(=O)c4cccc5c4-c4ccccc4C5=O)CC3)c3ncn(C4CCCC4)c3n2)CC1 [compound 66, trans-4-(1-{4-[2-(4-Amino-cyclohexylamino)-9-cyclopentyl-9H-purin-6-ylamino]-piperidin-1-yl}-methanoyl)-fluoren-9-one] | 234 nM | 1.66 µM | 5.76 | 325 nM | 1.93 µM

The next lines start with the values.

Row | IC50 (cdk1/cyclin B) | IC50 (MDA-MB-435) | pIC50 (cdk4/cyclin D1) | IC50 (cdk2/cyclin E) | IC50 (PC-3) | Structure (SMILES)
13 | 36 nM | 1.99 µM | 6.44 | 14 nM | 1.8 µM | C[C@H](O)C(=O)N1CCC(Nc2nc(N[C@H]3CC[C@H](N)CC3)nc3c2ncn3C2CCCC2)CC1 [compound 47, trans-(S)-1-{4-[2-(4-Amino-cyclohexylamino)-9-cyclopentyl-9H-purin-6-ylamino]-piperidin-1-yl}-2-hydroxy-propan-1-one dihydrochloride]
14 | 40 nM | 1.17 µM | 6.03 | 80 nM | 0.88 µM | CCC(=O)N1CCC(Nc2nc(N[C@H]3CC[C@H](N)CC3)nc3c2ncn3C2CCCC2)CC1 [compound 53, trans-1-{4-[2-(4-Amino-cyclohexylamino)-9-cyclopentyl-9H-purin-6-ylamino]-piperidin-1-yl}-propan-1-one dihydrochloride]
15 | 93 nM | 0.62 µM | 6.14 | 52 nM | 0.96 µM | CC(C)C(=O)N1CCC(Nc2nc(N[C@H]3CC[C@H](N)CC3)nc3c2ncn3C2CCCC2)CC1 [compound 59, trans-1-{4-[2-(4-Amino-cyclohexylamino)-9-cyclopentyl-9H-purin-6-ylamino]-piperidin-1-yl) -2-methyl-propan-1-one dihydrochloride]
16 | 83 nM | 0.69 µM | 7.04 | 37 nM | 0.65 µM | CC(C)CC(=O)N1CCC(Nc2nc(N[C@H]3CC[C@H](N)CC3)nc3c2ncn3C2CCCC2)CC1 [compound 60, trans-1-{4-[2-(4-Amino-cyclohexylamino)-9-cyclopentyl-9H-purin-6-ylamino]-piperidin-1-yl}-3-methyl-butan-1-one dihydrochloride]
17 | 72 nM | 3.09 µM | 6.12 | 50 nM | 3.29 µM | COCC(=O)N1CCC(Nc2nc(N[C@H]3CC[C@H](N)CC3)nc3c2ncn3C2CCCC2)CC1 [compound 65, trans-1-{4-[2-(4-Amino-cyclohexylamino)-9-cyclopentyl-9H-purin-6-ylamino]-piperidin-1-yl}-2-methoxy-ethanone dihydrochloride]
